Measurements taken from EP0255028A2 (priority 1986, dated 1988).
Where two headings read alike, the source gives them in different places.

How the values were obtained:
[1] = test system: durch PAF induzierte Aggregation von Humanthrambozyten; assay: Inhibition of PAF-induced platelet aggregation in vitro (Born and Cross method); format: cell-based; conditions: Homo sapiens
Text: 1. In vitro Untersuchun^qen: Hemmung der Blutplättchen-Aqqreqation
Zur Bestimmung der PAF-antagonistischen Wirkung von Substanzen wurde die durch PAF induzierte Aggregation von Humanthrambozyten in vitro verwendet. Zur Gewinnung von thrombozytenreichem Plasma (TRP) erfolgt die Blutentnahme aus einer nicht gestauten Vene mit Hilfe einer Plastikspritze, in der sich 3,8 %ige Natriumcitratlösung befindet. Das Verhältnis zwischen Natriumcitratlösung und Blut beträgt 1:9. Nach vorsichtiger Durchmischung wird das Citratblut bei 150 x g (1200 U/min) 20 Minuten lang zentrifugiert. Die Messung der Thrombozytenaggregation erfolgt nach dem von Born und Cross ausgearbeiteten Verfahren (G. V. R. Born und M.J. Cross, J. Physiol. 168, 178 (1963)), wobei dem TRP unter ständigem Rühren PAF als Auslöser der Aggregation zugesetzt wird.
Die Prüfsubstanz wird jeweils 2 - 3 Minuten vor Auslösung der Aggregation in einem Volumen von 10 µl zugesetzt. Als Lösungsmittel dienen entweder Aqua.dest., Ethanol und/oder Dimethylsulgoxyd. Kontrollansätze erhalten entsprechende Volumina dieser Lösungsmittel. Nach Registrierung der Ausgangsabsorption (2-3 Minuten) wird die Aggregation mit PAF (5 x 10^-8M) induziert.
Zur Beurteilung von Substanzeffekten wird das Maximum der ersten Aggregationswelle verwendet. Die durch PAF induzierte maximale Absorptionsrate maximale Aggregation x 100 %) wird jeweils gleichzeitig in einem Parallelansatz (= Kontrollansatz in einem der Kanäle des 2 Kanal-Aggregometers) zu jedem Testansatz (zweiter Kanal) mitgeprüft und als 100 %-Wert verwendet.
Der unter dem Einfluß der Testsubstanz erreichte Aggregationswert wird als 100 % angegeben.
Jede Prüfsubstanz wird bei Konzentrationen von 10^-3 bis 10^-8M mit einem Stichprobenumfang von jeweils n= 4 hinsichtlich einer hemmenden Wirkung auf die durch PAF induzierte Thrombozytenaggregation untersucht. Danach wird eine Konzentrations-Wirkungskurve anhand von 3 Konzentrationen erstellt und die IK50 (Konzentration bei einer 50%igen Aggregationsheinmung) ermittelt. Die IK-Werte von Verbindungen der allgemeinen Formel I bewegen sich im allgemeinen um Werte, die kleiner als 9 µM sind.

[2] = molecular target: Flunitrazopam-Bindungstest; assay: Flunitrazepam binding test (FNB); conditions: read-out: IK50-Wert FNB
[3] = read-out: IK50 (Konzentration bei einer 50%igen Aggregationshemmung)

Compound | IC50 [1, 3] [nM] | IC50 ([1]; read-out: IK50-Wert PAF) [nM] | IC50 [2] [nM]
Cc1nnc2n1-c1ccc(Cl)cc1C(c1ccccc1)=NC2 [Alprazolam, reference compound] | 14000 | 14000 | 5.5
Cc1nnc2n1-c1ccc(OCC(=O)NC3CCN(C)CC3)cc1C(c1ccccc1Cl)=NC2 [(c)] |  | 800 | 2160
Cc1nnc2n1-c1ccc(C(=O)OCCCN(C)C)cc1C(c1ccccc1Cl)=NC2 [(h)] |  | 1200 | 
Cc1nnc2n1-c1ccc(OCCN3C(=O)c4ccccc4C3=O)cc1C(c1ccccc1Cl)=NC2 [(e)] |  | 300 | 
Cc1cnc2n1-c1ccc(OCCCN3CCOCC3)cc1C(c1ccccc1)=NC2 [(l)] |  | 100 | > 5000
Cc1nnc2n1-c1ccc(C(=O)NCCN3CCOCC3)cc1C(c1ccccc1Cl)=NC2 [(g)] |  | 900 | > 5000
Cc1nnc2n1-c1ccc(OCCN3CCOCC3)cc1C(c1ccccc1Cl)=NC2 [(d)] |  | 300 | 2680
Cc1nnc2n1-c1ccc(OCC(=O)NCC(C)C)cc1C(c1ccccc1Cl)=NC2 [(b)] |  | 400 | 40
Cc1nnc2n1-c1ccc(OCc3cccnc3)cc1C(c1ccccc1)=NC2 [(k)] |  | 200 | 1420
CCOC(=O)CCCOc1ccc2c(c1)C(c1ccccc1Cl)=NCc1nnc(C)n1-2 [(a), 8-(3-Ethoxycarbonyl-propyloxy)-1-Methyl-6-(2-chlorphenyl)-4H-(1,2,4]triazolo(4,3-a][1,4]benzodiazepin] |  | 1300 | 570
Cc1cnc2n1-c1ccc(OCc3cccnc3)cc1C(c1ccccc1)=NC2 (atropisomer, axis not shown) [(m)] |  | 100 | 
Cc1nnc2n1-c1ccc(Cl)cc1C(c1ccccc1Cl)=NC2 [Triazolam, reference compound] | 9000 | 9000 | 1.4
Cc1nnc2n1-c1ccc(OCCN3CCOCC3)cc1C(c1ccccc1Cl)NC2 (centres unmarked) [(i)] |  | 400 | 4550
Cc1nnc2n1-c1ccc(C3=NC(C)(C)CO3)cc1C(c1ccccc1Cl)=NC2 [(f)] |  | 400 | 800
Cc1nnc2n1-c1ccc(OCCCN3CCOCC3)cc1C(c1ccccc1)=NC2 [(j)] |  | 100 | > 5000
